Results as given in patent US8575089B2, “Composition for preventing or treating inflammation” (University-Industry Cooperation Group of Kyung Hee, priority 2009, dated 2013).
Where no end group is shown, it is not given here.

Key:
[1] = tested on: IL-6 and TNFα; assay: Radiation-irradiating model: inflammatory cytokines IL-6 and TNFα in serum (ELISA); format: in vivo, C57b1/6 mice; details: mice, 8 Gy, 5 nmole/kg SP i.v.
Experimental: (§1) 5 nmole/kg of SP dissolved in a physiological saline was injected to a tail vein of C57b1/6 mice (8 weeks, sex; male, n=4, Average weight; 20 g) one day before irradiation and immediately after irradiation. The irradiation was performed at 8 Gy radiation in a Gamma lay radiation irradiator (^137Cs, Atomic Energy of Canada, Mississauga, Canada). The mice were sacrificed at 4.5 hours and one day after irradiation, and then the blood was collected. The part of the blood was used for analyzing CBC (Complete Blood Count) and the remaining blood was used to isolate serum and then analyze cytokines
IL-6 and TNFα that are well known as inflammatory cytokines were analyzed. Specific procedures were as follows: Serum samples stored in […] and reagents, controls, and standard proteins stored in a cold storage were taken out at a room temperature. 50 μl of diluted solution was put into each well; 50 μl of standard, control, and samples were added; well mixed by lightly tapping the plate; and then placed for 2 hours at a room temperature. […] After 30 minutes, 100 μl of stop codon was treated to stop the reaction; the optical density was measured at 450 nm; the amounts of cytokines were converted based on a protein conversion formula by a standard sample; and then the result was shown in FIG. 8. […]

[2] = tested on: regulatory T cells (CD4+, FoxP3+) and anti-inflammatory macrophage M2 (CD11b+, CD206+); assay: Radiation-irradiating model: FACS of regulatory T cells and macrophage M2 in mesentric lymph nodes and small intestine; format: in vivo, C57b1/6 mice; details: mice, 8 Gy, SP i.v., 4.5 hours after irradiation
Experimental: as §1
The mice were sacrificed at 4.5 hours after irradiation using the same method as Example 3; mesentric lymph nodes were taken for isolating mononuclear cells; then isolated mononuclear cells were fixed at 3.7% formalin for 1 hour; and then anti-inflammatory-related T cells and macrophages were analyzed through FACS (BD FACSCalibur™: 343098, BD Biosciences, Canada) analysis.
Specifically, the mice were sacrificed at 4.5 hours after 8 Gy radiation; the abdomens were cut to open; mesentric lymph nodes and small intestines were taken and then were cut fine; then chopped by using operating scissors; then were treated with collagenase type I (Worthington, USA) and DNase I (Sigma, USA) at 37° C. for 20 minutes; washed, respectively; mononuclear cells were isolated; and then fixed in 3.7% formalin for 1 hour. The mesentric lymph nodes mononuclear cells fixed in formalin were double-stained with CD4 (130-091-608, Miltenyi Biotec, Germany) and FoxP3 (130-093-013, Miltenyi Biotec, Germany) antibody, and then regulatory T cells were analyzed through FACS analysis. In addition, an anti-inflammatory macrophage M2 analysis was performed through FACS analysis after double staining with CD11b (130-081-201, Miltenyi Biotec, Germany) and CD206 (ab64693, abcam, UK) antibody. Since T cells or macrophages in the small intestine mononuclear cells fixed in a formalin accounted for less than 1% of the whole cells, FACS analysis was performed after isolating CD3 (130-092-962, Miltenyi Biotec, Germany)+ cell and CD11b+ cell with MACS isolating method as disclosed in the previous Example 1-(2), respectively. Regulatory T cells were analyzed by double-staining the cells isolated by CD3 with CD4 and FoxP3 antibody and anti-inflammatory macrophage M2 analysis was performed by double-staining the cells isolated by CD11b with CD11b and CD206 antibody.

Substance: Substance-P (RPKPQQFFGLM; not fully specified; ends and bridges not checked; UniProt P20366 58-68, looked up)
- inhibition of increase of IL-6 in serum ([1]; 4.5 hours after irradiation, vs group without SP, FIG. 8A): about 30%
- TNF α in serum ([1]; one day after irradiation, FIG. 8): inhibited
- anti-inflammatory macrophage M2 (CD11b+, CD206+) ([2]; mesentric lymph nodes, FIG. 10): increased
- regulatory T cells (CD4+, FoxP3+) ([2]; mesentric lymph nodes, FIG. 10): increased
- anti-inflammatory macrophage M2 (CD11b+, CD206+) ([2]; small intestines, FIG. 11): increased
- regulatory T cells (CD4+, FoxP3+) ([2]; small intestines, FIG. 11): increased
